The record followed here is patent publication EP2992885A2, “METHOD FOR INHIBITING A LIVER DISEASE” (priority 2014, dated 2016).

Counter-ions that a name gives are not always drawn.

One test concerns ROCK II. Briefly: ROCK II expression in HepG2 cells. The format is cell-based. On the procedure:
HepG2 cells were treated with various concentrations of drugs for 24 hours. Reactions were terminated by washing twice with cold PBS, and the cells were then harvested. Proteins in the whole-cell lysate were homogenized in an ice-cold lysis buffer and a protease inhibitor (Sigma-Aldrich, St. Louis, MO, U.S.A.). The homogenate was centrifuged at 90, 000 g for 15 minutes at 4°C, and supernatant was recovered as the total cellular protein. Cytosolic and membrane fractions of HepG2 cells were prepared using a CNM (Cytosol Nuclear Membrane) compartment protein extraction kit (BioChain Institute Inc., Hayward, CA, U.S.A.) according to the manufacturer's instructions. All of the fractionated protein solutions were stored at -80°C until analysis. To measure the expression levels of proteins by drugs, the total cell protein was extracted after incubation with treatments for 24 hours and then Western blotting analysis was performed as described previously.
To confirm that RhoA antagonist C3 exoenzyme (5 µg/ml) and ROCK antagonist Y27632 (10 µM), dissolved in 10% popyleneglycol, can inactivate_the expression of ROCK II, they were added to cells in culture for 24 hours, respectively, to measure the expression of ROCK II and related expressions of PPARγ and ABCA-1 in HepG2 cells.

The subject of the next test is mice fed with HFD. Briefly: HFD-fed mice, 8 weeks: serum and liver lipid levels, body weight, food intake. To be noted: for HDL (HDL cholesterol) / LDL (LDL cholesterol) / TG of liver (Triacylglycerol) / TG in serum (Triacylglycerol): HFD for 8 weeks; for TG in serum (Triacylglycerol): means±SE; for HDL chol. / LDL chol. / TG / Tot. chol.: Table 2, HFD mice, unit not given in Table 2 (Table 1 gives mg/dl). More on the design: TG / Tot. chol. / HDL chol. / LDL chol.: unit not given here. It is filed as in vivo, C57BL/6J male mice. On the procedure: During the 2 month experiments, mice fasted for one night before the experiment was changed from a standard diet (STD) to a HFD and then the mice were randomly divided into 5 groups, including 2 control and 3 treatment groups. Six mice were used in each group. The control mice received either STD or HFD and the protection group was fed HFD with KMUP-1 HCl (2.5 and 5 mg/kg/day), simvastatin (5 mg/kg/day) or a target drug administered by gavage to assess weight gain followed by biochemical analysis. Liver from the protection group supplemented with KMUP-1 HCl (1 mg/kg/day) were used to determine the HMG CoA reductase expression.
Within 2 months, the 3 day food intake average for each animal was measured. The weight gain and plasma lipid levels of each group were determined and compared to the non-treatment control group. […] Agents used in the assays were obtained from Merck & Co. (Kenilworth, NJ, U.S.A.). Triglyceride (TG), total cholesterol, HDL cholesterol and LDL cholesterol in mouse serum were measured by methods used in the clinic. To measure the hepatic TG, isolated liver were cut into small chips.

The test system of the next test is HMG CoA reductase. Briefly: HFD-induced HMG CoA reductase expression in liver, 8 weeks. The format is in vivo, mice. The following applies: HFD 8 weeks; KMUP-1 HCl 2.5, 5 mg/kg; simvastatin 5 mg/kg, by gavage. On the procedure: During the 2 month experiments, mice fasted for one night before the experiment was changed from a standard diet (STD) to a HFD and then the mice were randomly divided into 5 groups, including 2 control and 3 treatment groups. Six mice were used in each group. The control mice received either STD or HFD and the protection group was fed HFD with KMUP-1 HCl (2.5 and 5 mg/kg/day), simvastatin (5 mg/kg/day) or a target drug administered by gavage to assess weight gain followed by biochemical analysis. […]
The obtained protein extract was boiled to a ratio of 4:1 with a sample buffer (Tris 100 mM, pH 6.8, glycerol 20%, SDS 4% and bromophenol blue 0.2%).
The blot was then incubated with anti-mouse or anti-goat IgG linked to alkaline phosphatase (1:1000) for 1 hour.

For `C[C@@H](N)[C@H]1CC[C@H](C(=O)Nc2ccncc2)CC1` [Y27632], the “ROCK II expression (Fig. 24A)” value in the test on ROCK II (HepG2, 24 hours, C3 exoenzyme 5 µg/ml, Y27632 10 µM) was “reduced”.

Consider `Cn1c(=O)c2c(ncn2CCN2CCN(c3ccccc3Cl)CC2)n(C)c1=O` [KMUP-1, 7-[2-[4-(2-chlorophenyl)piperazinyl]ethyl]-1,3-dimethyl xanthine], for which, in the test with mice fed with HFD (2.5mg/kg by gavage), the “HDL (HDL cholesterol)” value is 103.6 ± 4.2 mg/dL, the “LDL (LDL cholesterol)” value came out at 14.2 ± 1.4 mg/dL, the “TG of liver (Triacylglycerol)” value came to 28.4 ± 3.6 mg/dL and the “TG in serum (Triacylglycerol)” value is 74.5 ± 5.1 mg/dL. Also, in the test on mice fed with HFD (5mg/kg by gavage), the “HDL (HDL cholesterol)” value is 118.3 ± 5.7 mg/dL, the “LDL (LDL cholesterol)” value was 14.2 ± 2.2 mg/dL, the “TG of liver (Triacylglycerol)” value was found to be 26.12 ± 3.1 mg/dL and the “TG in serum (Triacylglycerol)” value amounted to 72.7 ± 4.7 mg/dL.

Turning to “8-(p-chloro-phenylthio)guanosine-3,5-monophosphorothioate [Rp-8-pCPT-cGMPS]”, the “ROCK II expression (Fig. 24B)” value in the test with ROCK II (HepG2, 10µM cGMP antagonist alone) was “increased”.

In the test on mice fed with HFD (Dose 2.5 mg/kg), `Cn1c(=O)c2c(ncn2CCN2CCN(c3ccccc3Cl)CC2)n(C)c1=O` [KMUP-1 HCl, 7-[2-[4-(2-chlorophenyl)piperazinyl]ethyl]-1,3-dimethylxanthine HCl complex] returned an HDL chol. of 103.6± 4.2, an LDL chol. of 14.2± 1.4, a TG of 74.5± 5.1 and a Tot. chol. of 133± 5.1. In addition, in the test on mice fed with HFD (Dose 5 mg/kg), the HDL chol. is reported as 118.3± 5.7, the LDL chol. is reported as 14.2± 2.2, the TG was found to be 72.67± 4.7 and the Tot. chol. came to 125.5± 9.8. For the same compound, the “HFD-induced downregulation of HMG CoA reductase expression in liver” value in the test with HMG CoA reductase was “significantly reversed”.

Turning to `CCC(C)(C)C(=O)O[C@H]1C[C@@H](C)C=C2C=C[C@H](C)[C@H](CC[C@@H]3C[C@@H](O)CC(=O)O3)[C@H]21` [simvastatin, reference compound], in the test with mice fed with HFD (5mg/kg by gavage), the “HDL (HDL cholesterol)” value was 103.2 ± 2.5 mg/dL, the “LDL (LDL cholesterol)” value came out at 15.3 ± 1.3 mg/dL, the “TG of liver (Triacylglycerol)” value is 35.5±2.** mg/dl and the “TG in serum (Triacylglycerol)” value was found to be 82.7 ± 6.3 mg/dL.
